Among the data in a melting point compilation (Tetko et al.; mined from patent text by program, amines drawn as free bases though some values may be those of a salt) are melting point values, retold here.

Residues, ends and D or L forms follow the SMILES beside them.

In turn, `CCCC(=O)C1=C(O)CC(c2ccc(OC)c(NC(C)=O)c2)CC1=O` (centres undefined) came in with a melting point of 102 to 106 °C. Take `CCOC(=O)C1=C(C)NC(=S)N(C(=O)OCC)C1c1ccc(OC)cc1` (centres undefined): the melting point fell in the range of 130 to 132 °C. For `CN=C(NC#N)NCCSCc1c[nH]cn1` the value was 138 to 140 °C.

Turning to `NS(=O)(=O)c1cccc(C(O)CO)c1` (centres undefined), the melting point is 170 to 171 °C. `Nc1nc(-c2ccc(OCC(=O)NCC3CCCCC3)cc2)cs1` had a melting point of 145 to 147 °C. Compound `COC(=O)c1cc(N=Cc2ccccc2)ccc1OC(C)=O` returned a melting point of 101 to 103 °C. With `FC(F)(F)c1ccc(-c2cc(Oc3cncc4ccccc34)ncn2)cc1` the figure was 206 to 211 °C; with `COC(=O)C=CCC1C(=O)N2C(C(=O)OCC(Cl)(Cl)Cl)=CCC12` (centres undefined), 101 to 102 °C. `Cc1ccc(CSc2nc(C)n(C)c(=O)c2Br)cc1` gave a melting point of 73 to 74 °C. For the compound `CC(C)(C)OC(=O)NCCOc1noc2cccc(C#N)c12`, the melting point is 116 to 117 °C.

`O=S(=O)(c1ccc(Nc2nccc(Nc3ccc(F)cc3)n2)cc1)N(CCNCC(F)(F)F)C1CCN(Cc2ccccc2)CC1`: the melting point was in the range of 137 to 138 °C. Compound `CC(=O)c1ccc(N2CCN(c3c(C)c(C)c4c(c3C)CC(C)(C)O4)CC2)cc1` gave a melting point of 192 to 196 °C.

Compound `COC(=O)c1cscc1NC(=O)CCl` registered a melting point of 98 to 100 °C. Turning to `O=C(Nc1ccc(Cl)cc1)c1cc(Cl)c2cccnc2c1O`, the melting point lay in the range of 214 to 216 °C. In turn, `O=C1NCCNc2c1sc1ccccc21` came in with a melting point of 210 to 212 °C. For the compound `COc1cc(OC)nc(NC(=O)NS(=O)(=O)Cc2ccccc2C(=O)N(C)C)n1`, the melting point lay in the range of 141 to 143 °C. For `COC(=O)c1cc(Cl)cc(C(=O)OC)n1` the value was 132 to 134 °C; for `Nc1nc(N)c(C(=O)NC(Cc2ccccc2)C(=O)NCCNCC(O)COc2cccc3ccccc23)nc1Cl` (centres undefined), 142 to 146 °C; for `O=C1N(Cc2ncon2)c2ccccc2C12COc1cc3c(cc12)OCO3` (centres undefined), 160 to 162 °C. As for `COC(=O)[C@H](O)[C@@H](N)c1ccccc1`, the melting point turned out to be 101 °C. Turning to `Cc1c(=O)n(Cc2ccc(C#N)cc2)c(=O)n2cc(C(=O)NCc3ccc(F)cc3)sc12`, the melting point was above 220 °C. For `CCCc1c(OCCCOc2cccc3ccccc23)ccc2c1OC(CCC(=O)O)(CCC(=O)O)CC2=O` the value was 164 to 167 °C; for `Cc1ccc(S(=O)(=O)C2=C(C(=O)OCC(C)C)C(=O)C=C(C(=O)OCC(C)C)C2=O)cc1`, 112 to 114 °C. With `NC(=O)CNC(=O)c1cccc(-c2ccc(F)c3cc(Cc4cc(F)cc(Cl)c4)sc23)c1` the figure was 166 to 167 °C; with `Oc1ccc2c(c1)CCCC(c1ccccc1)=C2c1ccc(OCCCCCCSCCCC(F)(F)C(F)(F)F)cc1`, 166 °C; with `O=C(NC(=O)c1c(Cl)cccc1Cl)Nc1cncc(C(F)(F)F)n1`, 188 to 192 °C.

As for `O=C1C(=O)N(CCCN2CCN(C3c4ccccc4CCc4ccccc43)CC2)c2ccccc21`, the melting point fell in the range of 159 to 162 °C. In turn, `COc1ccc(C(=O)Nc2ccccc2)cc1NS(=O)(=O)c1sc(NC(C)=O)nc1C` returned a melting point of 260 to 261 °C.

`COC(=O)C1CCCC(=C(N)c2ccc(Cl)cc2)C(=O)C1` (centres undefined) displayed a melting point of 154 to 155 °C. In the case of `NS(=O)(=O)c1cc2cc(O)ccc2s1`, the melting point lay within 192 to 194 °C.

Regarding `CC(C)(C)c1cc(CCc2ccc(NC(=O)NC3CCN(Cc4ccccc4)CC3)cc2)cc(C(C)(C)C)c1O`, the melting point lay in the range of 195 to 197 °C.

The compound `CC(=O)SCCN(CCc1ccccc1)C(=O)N[C@@H](Cc1ccc([N+](=O)[O-])cc1)C(=O)NCCC(=O)O` returned a melting point of 114 to 118 °C. With `CCN(CCCCN)c1ccc2c(=O)[nH][nH]c(=O)c2c1` the figure was 255 to 257 °C; with `Cc1ccc(CN2CCc3ccc(C(=O)CCC(=O)N4CCC(c5ccc(Cl)cc5)CC4)cc3CC2)cc1`, 137 to 138 °C; with `CC1(C)CCC(C)(C)c2cc3cc(-c4ccc(C(=O)O)cc4)ccc3cc21`, 282 °C.

As for `CS(=O)(=O)c1nccc(Cl)n1`, the melting point fell in the range of 91 to 93 °C.

For `COc1cc(C(=O)N(C)OC)c2oc(-c3ccc(OC)c(F)c3)cc2c1`, the melting point was in the range of 100 to 102 °C. As for `CCC(=O)c1ccc(COc2ccc(CO)c(CO)c2)s1`, the melting point was 123 °C. Consider `Cc1cc(=O)oc2cc(N(C)C(=O)C(=O)O)ccc12`, for which the melting point was 162 to 164 °C. With `ONCc1ccc2c(c1)Cc1ccccc1-2` the figure was 150 to 152 °C; with `O=C1N(c2cc(Cl)cc(Cl)c2)C(=O)C2(Cc3ccc(Br)cc3)CC(F)(F)CN12` (centres undefined), 160 °C. With `O=C(CN1C(=O)CC1S(=O)c1ccccc1)NCCCCCCc1ccc(Cl)cc1` (centres undefined) the figure was 113 to 115 °C; with `CCOC(=O)C1=Cc2cccc(NC(=O)CCCCl)c2OCC1`, 98 to 99 °C. For `Cc1cccc(C(=O)C(Br)c2ccnc(F)c2)c1` (centres undefined) the value was 66 to 67 °C; for `Cc1cccc(C)c1NC(=O)CN1CCN(C=O)CC1`, 139 to 140 °C. Turning to `CC(=O)Nc1nc2c(s1)-c1nc(N3CCCC(CNC(=O)OC(C)(C)C)C3)ncc1CC2` (centres undefined), the melting point lay within 250 to 255 °C. With `CC(OC(=S)Nc1ccc(-c2ncn(-c3ccc(OC(F)(F)F)cc3)n2)cc1)c1ccc(C(F)(F)F)nc1` (centres undefined) the figure was 186 to 188 °C; with `CCCCCc1c(C(C)C)nc(C(C)C)c(CO)c1-c1ccccc1O`, 126 °C. With `CSc1cc(C)nc(SC)c1NC(=O)CN1CCN(CCSc2nc3ccccc3s2)CC1` the figure was 136 to 139 °C; with `CC1OC(n2c(Cl)nc3cc(Cl)c(Cl)cc32)C(O)C1O` (centres undefined), 85 to 86 °C. For the compound `CC1(C)SC2C(NC(=O)Cc3ccccc3)C(=O)N2C1c1nnn[nH]1` (centres undefined), the melting point lay in the range of 168 to 170 °C. With `CC(C)NC1=C(Cl)NC(N)(C(=O)NC#N)C=N1` (centres undefined) the figure was 232 °C; with `CC(C1CC1)N1C(=O)c2cc([N+](=O)[O-])cnc2C1=O` (centres undefined), 96 to 99 °C; with `COc1cc(OC)c2c(=O)[nH]c(-c3ccc(CN4C(=O)CNC4=O)cc3)nc2c1`, 317 to 318 °C. With `CCOP(=O)(CCCCC1(C(=O)NCC(F)(F)F)c2ccccc2-c2ccccc21)OCC` the figure was 87 to 89 °C. `CNc1nc2ccccc2c2[nH]c3ccccc3c12`: the melting point lay within 146 to 147 °C. With `COc1cccc(-c2n[nH]c3c2Cc2ccccc2-3)c1` the figure was 172 to 174 °C; with `CCCc1ccc(-n2nc(Cl)cc2-c2ccc(S(C)(=O)=O)cc2)cc1`, 143 to 144 °C. Consider `CN1CN(C)c2nc3n(Cc4ccccc4)c(=O)c(Cc4ccccc4)c(O)n3c2C1=O`, for which the melting point was in the range of 176 to 179 °C. As to `CC(NC(=O)C(N)Cc1ccccc1)C(=O)NCC(=O)NC(Cc1ccccc1)C(=O)NCC(=O)NC(CCCNC(=N)N)C(=O)O` (centres undefined) (H-FAGFGR-OH; configuration not given here), the melting point lay in the range of 154 to 156 °C. For `CCCCCCCCCCCCCCCCCCOC(=O)P(=O)(OC)OC` the value was 41 to 42 °C; for `COc1cc(OC)c2c(=O)c(I)coc2c1`, 158 to 160 °C. For `CCCc1nc(C=O)c(C)[nH]1` the value was 126 to 129 °C; for `COc1ccc(OC(N)=O)cc1`, above 300 °C; for `O=C1CN2Cc3cc(C(=O)c4cccnc4)ccc3N=C2N1`, 275 °C. `COc1ccc(-c2c(C)nc(N)nc2C2CCN(C(=O)c3ccccc3)CC2)cc1` displayed a melting point of 226 to 227 °C.

Compound `CCCC(CCNC(=O)C(C#N)=Cc1cc(O)c(O)c(OC)c1)NC(=O)C(C#N)=Cc1cc(O)c(O)c(OC)c1` (centres undefined) registered a melting point of 243 °C. With `NC(=O)c1cc(-n2cnn(Cc3ccc(F)cc3)c2=O)n[nH]1` the figure was above 270 °C; with `Nc1ccc(-n2ccc(=O)cc2)cc1N`, 257 to 260 °C; with `Cc1cc(C)cc(NC(=O)c2cc(Br)ccc2O)c1`, 188 to 190 °C.

In the case of `CC(=O)OCC1CCCn2c(cc3ccccc32)C1` (centres undefined), the melting point came to 65 °C. `CCN(c1nc(-c2c(F)cccc2OC)c2[nH]ncc2n1)c1ccc(C(F)(F)F)cc1Cl`: the melting point is 184 to 185 °C.

On to `CN1Cc2c(C(N)=NO)ncn2-c2cccc(Cl)c2C1=O`, for which the melting point is above 250 °C.

`CCCCCCCCCCCCCCC(O)C(O)C(N)CO` (centres undefined): the melting point lay within 132 to 134 °C. For `COc1ccccc1C(=O)NCC(=O)N1c2ccccc2N(Cc2ccccc2)C(=O)C2CCCC21` (centres undefined) the value was 187 to 188 °C; for `COc1cc2c(cc1Nc1ncc(Cl)c(Nc3ccc(N4CCOCC4)cc3)n1)CCN(CC(=O)N(C)C)CC2`, 227 to 242 °C. Compound `CC(=O)NCCC1CCNCC1` had a melting point of 60 °C. With `O=C(O)COc1cccc2c1Cc1sc(SCCCC(c3ccccc3)c3ccccc3)nc1-2` the figure was 110 to 112 °C; with `COc1ccccc1Oc1cccc(CC(=O)O)c1O`, 125 to 126 °C; with `CCC1(CC)NC(=O)C(CC)(CC)N1OC(C)(C)C#N`, 125 to 130 °C.

Turning to `COP(=O)(CC(=C(c1ccc(F)cc1)c1ccc(F)cc1)c1nnnn1C)OC`, the melting point lay in the range of 140 to 141 °C.

The compound `CCc1nc2c(-c3cc4c(cc3C)OCC4)ncnc2n1C(C1CC1)C1CC1` registered a melting point of 147 to 148 °C. With `N#CCc1cccc(Cc2nc3c(F)c(F)cc(F)c3s2)c1Cl` the figure was 148 to 151 °C; with `Cc1cccc(CC(=O)c2ccnc(Br)c2)n1`, 126 °C; with `CCCCOc1c(CNC(=O)OC(C)(C)C)n(CC2CC2)c(=O)c2ccc(OCc3ccccc3)cc12`, 106 to 107 °C.

As to `BrCc1ccc2ncoc2c1`, the melting point lay in the range of 52 to 56 °C. For `CCOC(=O)C(=O)Nc1cc2c3c(cccc3c1[N+](=O)[O-])C(=O)OC2=O` the value was 221 to 222 °C; for `O=C1CCC(CO)N1OCc1ccccc1` (centres undefined), 121 to 123 °C. Take `O=C1CCC(C(=O)c2ccccc2)N1` (centres undefined): the melting point was 175 °C.
